Each compound was assayed against PKM2 (Homo sapiens, UniProt P14618) (assay: PKM2 Assay (activation, LDH-coupled, absorbance at 340 nm)). Settings: Table 5.
Assay type: biochemical
In short: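 Human PKM2 (50 ng/well) was preincubated with compound and coupling mix for 30 min at 4 °C without ADP. Reactions were then started with ADP (0.7 mM) alongside PEP 0.15 mM, NADH 180 μM and LDH, in Tris pH 7.5/KCl/MgCl2/DTT/BSA buffer. A340 was followed at 25 °C and activation reported as AC50.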

Sequence of PKM2 (P14618 whole entry): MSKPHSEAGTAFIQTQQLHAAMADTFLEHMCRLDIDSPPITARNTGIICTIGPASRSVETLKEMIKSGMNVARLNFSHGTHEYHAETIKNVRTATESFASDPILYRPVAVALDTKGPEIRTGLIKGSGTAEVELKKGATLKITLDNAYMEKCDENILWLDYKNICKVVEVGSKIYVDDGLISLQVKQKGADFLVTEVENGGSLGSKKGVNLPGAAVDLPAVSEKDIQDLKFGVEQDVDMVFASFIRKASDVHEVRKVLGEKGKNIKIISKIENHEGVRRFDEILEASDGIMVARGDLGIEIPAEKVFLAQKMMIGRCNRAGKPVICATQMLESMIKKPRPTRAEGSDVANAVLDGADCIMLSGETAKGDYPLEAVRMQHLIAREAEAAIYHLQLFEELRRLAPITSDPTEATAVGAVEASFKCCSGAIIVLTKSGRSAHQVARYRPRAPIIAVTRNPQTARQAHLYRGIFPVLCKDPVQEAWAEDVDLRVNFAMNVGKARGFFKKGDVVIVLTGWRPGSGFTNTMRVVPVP

AC50 [nM]	Compound
100 to 500	CC(C)(C(=O)N1CCN(C(=O)c2ccc(NS(=O)(=O)c3cccc4cccnc34)c(OC(F)(F)F)c2)CC1)c1ccccc1 [Compound 359, N-(4-(4-(2-methyl-2-phenylpropanoyl)piperazine-1-carbonyl)-2-(trifluoromethoxy)phenyl)quinoline-8-sulfonamide]
100 to 500	O=C(c1ccc(NS(=O)(=O)c2cccc3cccnc23)c(OC(F)(F)F)c1)N1CCN(C(=O)c2ccccc2F)CC1 [Compound 360]
500 to 1000	O=C(Cc1ccccc1F)N1CCN(C(=O)c2ccc(NS(=O)(=O)c3cccc4cccnc34)c(OC(F)(F)F)c2)CC1 [Compound 361]
100 to 500	CC(C)(C(=O)N1CCN(C(=O)c2ccc(NS(=O)(=O)c3cccc4cccnc34)c(OC(F)(F)F)c2)CC1)c1ccc(F)cc1 [Compound 362]
100 to 500	O=C(c1ccncc1)N1CCN(C(=O)c2ccc(NS(=O)(=O)c3cccc4cccnc34)c(OC(F)(F)F)c2)CC1 [Compound 363]
< 100	CC(C)(c1ccccc1)N1CCN(C(=O)c2ccc(NS(=O)(=O)c3cccc4cccnc34)cc2)CC1 [Compound 364]
< 100	O=C(c1ccc(NS(=O)(=O)c2cccc3cccnc23)cc1)N1CCN(C(=O)c2ccno2)CC1 [Compound 365, N-(4-(4-(isoxazole-5-carbonyl)piperazine-1-carbonyl)phenyl)quinoline-8-sulfonamide]
100 to 500	O=C(c1ccc(NS(=O)(=O)c2cccc3cccnc23)c(OC(F)(F)F)c1)N1CCN(Cc2cnccc2C(F)(F)F)CC1 [Compound 366, N-(2-(trifluoromethoxy)-4-(4-((4-(trifluoromethyl)pyridin-3-yl)methyl)piperazine-1-arbonyl)phenyl)quinoline-8-sulfonamide]
100 to 500	O=C(c1ccc(NS(=O)(=O)c2cccc3cccnc23)c(OC(F)(F)F)c1)N1CCN(Cc2cncc(Cl)c2)CC1 [Compound 367, N-(4-(4-((5-chloropyridin-3-yl)methyl)piperazine-1-carbonyl)-2-(trifluoromethoxy)phenyl)quinoline-8-sulfonamide]
100 to 500	COc1ncccc1CN1CCN(C(=O)c2ccc(NS(=O)(=O)c3cccc4cccnc34)c(OC(F)(F)F)c2)CC1 [Compound 368, N-(4-(4-((2-methoxypyridin-3-yl)methyl)piperazine-1-carbonyl)-2-(trifluoromethoxy)phenyl)quinoline-8-sulfonamide]
500 to 1000	O=C(c1ccc(NS(=O)(=O)c2cccc3cccnc23)c(OC(F)(F)F)c1)N1CCN(Cc2ccc(F)cc2F)CC1 [Compound 369, N-(4-(4-(2,4-difluorobenzyl)piperazine-1-carbonyl)-2-(trifluoromethoxy)phenyl)quinoline-8-sulfonamide]
< 100	CC(c1cccnc1)N1CCN(C(=O)c2ccc(NS(=O)(=O)c3cccc4cccnc34)cc2)CC1 (stereo not drawn) [Compound 370, N-(4-(4-(1-(pyridin-3-yl)ethyl)piperazine-1-carbonyl)phenyl)quinoline-8-sulfonamide]
< 100	O=C(c1ccc(NS(=O)(=O)c2cccc3cccnc23)cc1)N1CCN(C(=O)c2nccs2)CC1 [Compound 371, N-(4-(4-(thiazole-2-carbonyl)piperazine-1-carbonyl)phenyl)quinoline-8-sulfonamide]
< 100	O=C(c1ccc(NS(=O)(=O)c2cccc3cccnc23)cc1)N1CCN(C(=O)c2cn[nH]c2)CC1 [Compound 372]
100 to 500	COc1cccnc1CN1CCN(C(=O)c2ccc(NS(=O)(=O)c3cccc4cccnc34)c(OC(F)(F)F)c2)CC1 [Compound 373, N-(4-(4-((3-methoxypyridin-2-yl)methyl)piperazine-1-carbonyl)-2-(trifluoromethoxy)phenyl)quinoline-8-sulfonamide]
500 to 1000	O=C(c1ccc(NS(=O)(=O)c2cccc3cccnc23)c(OC(F)(F)F)c1)N1CCN(Cc2ccc(Cl)cc2Cl)CC1 [Compound 374, N-(4-(4-(2,4-dichlorobenzyl)piperazine-1-carbonyl)-2-(trifluoromethoxy)phenyl)quinoline-8-sulfonamide]
100 to 500	O=C(c1ccc(NS(=O)(=O)c2cccc3cccnc23)c(OC(F)(F)F)c1)N1CCN(Cc2cccc(F)c2F)CC1 [Compound 375, N-(4-(4-(2,3-difluorobenzyl)piperazine-1-carbonyl)-2-(trifluoromethoxy)phenyl)quinoline-8-sulfonamide]
100 to 500	O=C(c1ccc(NS(=O)(=O)c2cccc3cccnc23)c(OC(F)(F)F)c1)N1CCN(Cc2ccc(F)c(Cl)c2)CC1 [Compound 376, N-(4-(4-(3-chloro-4-fluorobenzyl)piperazine-1-carbonyl)-2-(trifluoromethoxy)phenyl)quinoline-8-sulfonamide]
100 to 500	O=C(c1ccc(NS(=O)(=O)c2cccc3cccnc23)c(OC(F)(F)F)c1)N1CCN(Cc2cccc(F)c2)CC1 [Compound 377, N-(4-(4-(3-fluorobenzyl)piperazine-1-carbonyl)-2-(trifluoromethoxy)phenyl)quinoline-8-sulfonamide]
100 to 500	O=C(c1ccc(NS(=O)(=O)c2cccc3cccnc23)c(OC(F)(F)F)c1)N1CCN(Cc2ccc(F)c(F)c2)CC1 [Compound 378, N-(4-(4-(3,4-difluorobenzyl)piperazine-1-carbonyl)-2-(trifluoromethoxy)phenyl)quinoline-8-sulfonamide]

Second part, the compound before the results:

Compound	AC50 [nM]
O=C(O[C@H]1CCOC1)N1CCN(C(=O)c2ccc(NS(=O)(=O)c3cccc4cccnc34)c(OC(F)(F)F)c2)CC1 [Compound 343, (S)-Tetrahydrofuran-3-yl-4-(4-(quinoline-8-sulfonamido)-3-(trifluoromethoxy)benzoyl)piperazine-1-carboxylate]	1000 to 20000
O=C(Oc1ccccn1)N1CCN(C(=O)c2ccc(NS(=O)(=O)c3cccc4cccnc34)c(OC(F)(F)F)c2)CC1 [Compound 344, Pyridin-2-yl4-(4-(quinoline-8-sulfonamido)-3-(trifluoromethoxy)benzoyl)piperazine-1-carboxylate]	500 to 1000
O=C(c1ccc(NS(=O)(=O)c2cccc3cccnc23)cc1)N1CCN(C(=O)c2cc(F)cc(F)c2)CC1 [Compound 345, N-(4-(4-(3,5-difluorobenzoyl)piperazine-1-carbonyl)phenyl)quinoline-8-sulfonamide]	100 to 500
Cc1cnc(C(=O)N2CCN(C(=O)c3ccc(NS(=O)(=O)c4cccc5cccnc45)cc3)CC2)cn1 [Compound 346, N-(4-(4-(5-methylpyrazine-2-carbonyl)piperazine-1-carbonyl)phenyl)quinoline-8-sulfonamide]	500 to 1000
O=C(c1ccc(NS(=O)(=O)c2cccc3cccnc23)cc1)N1CCN(C(=O)c2cocn2)CC1 [Compound 347, N-(4-(4-(oxazole-4-carbonyl)piperazine-1-carbonyl)phenyl)quinoline-8-sulfonamide]	100 to 500
O=C(c1ccc(NS(=O)(=O)c2cccc3cccnc23)cc1)N1CCN(C(=O)c2cncs2)CC1 [Compound 348, N-(4-(4-(thiazole-5-carbonyl)piperazine-1-carbonyl)phenyl)quinoline-8-sulfonamide]	< 100
O=C(c1ccc(NS(=O)(=O)c2cccc3cccnc23)cc1)N1CCN(C(=O)c2c[nH]cn2)CC1 [Compound 349, N-(4-(4-(1H-imidazole-4-carbonyl)piperazine-1-carbonyl)phenyl)quinoline-8-sulfonamide]	100 to 500
O=C(c1ccc(NS(=O)(=O)c2cccc3cccnc23)cc1)N1CCN(C(=O)c2cc[nH]n2)CC1 [Compound 350, N-(4-(4-(1H-pyrazole-3-carbonyl)piperazine-1-carbonyl)phenyl)quinoline-8-sulfonamide]	100 to 500
O=C(c1ccc(NS(=O)(=O)c2cccc3cccnc23)cc1)N1CCN(C(c2ccc(F)cc2)C(F)(F)F)CC1 (stereo not drawn) [Compound 351, N-(4-(4-(2,2,2-trifluoro-1-(4-fluorophenyl)ethyl)piperazine-1-carbonyl)phenyl)quinoline-8-sulfonamide]	< 100
COc1cc(C(=O)N2CCN(C3(c4ccccc4)CC3)CC2)ccc1NS(=O)(=O)c1cccc2cccnc12 [Compound 352, N-(2-methoxy-4-(4-(1-phenylcyclopropyl)piperazine-1-carbonyl)phenyl)quinoline-8-sulfonamide]	100 to 500
O=C(c1ccc(NS(=O)(=O)c2cccc3cccnc23)c(OC(F)(F)F)c1)N1CCN(C2(c3ccccc3)CC2)CC1 [Compound 353, N-(4-(4-(1-phenylcyclopropyl)piperazine-1-carbonyl)-2-(trifluoromethoxy)phenyl)quinoline-8-sulfonamide]	500 to 1000
O=C(c1ccc(NS(=O)(=O)c2cccc3cccnc23)cc1)N1CCN(C(=O)c2ncc[nH]2)CC1 [Compound 354, N-(4-(4-(1H-imidazole-2-carbonyl)piperazine-1-carbonyl)phenyl)quinoline-8-sulfonamide]	< 100
COc1cc(NS(=O)(=O)c2cccc3cccnc23)ccc1C(=O)N1CCN(C(C)(C)c2ccccc2)CC1 [Compound 355, N-(3-methoxy-4-(4-(2-phenylpropan-2-yl)piperazine-1-carbonyl)phenyl)quinoline-8-sulfonamide]	< 100
COc1cc(C(=O)N2CCN(C(C)(C)c3ccccc3)CC2)ccc1NS(=O)(=O)c1cccc2cccnc12 [Compound 356, N-(2-methoxy-4-(4-(2-phenylpropan-2-yl)piperazine-1-carbonyl)phenyl)quinoline-8-sulfonamide]	< 100
CC(c1c(F)cccc1F)N1CCN(C(=O)c2ccc(NS(=O)(=O)c3cccc4cccnc34)cc2)CC1 (stereo not drawn) [Compound 357, N-(4-(4-(1-(2,6-difluorophenyl)ethyl)piperazine-1-carbonyl)phenyl)quinoline-8-sulfonamide]	< 100
O=C(c1ccc(NS(=O)(=O)c2cccc3cccnc23)cc1)N1CCN(C(c2ccccc2)C(F)(F)F)CC1 (stereo not drawn) [Compound 358, N-(4-(4-(2,2,2-trifluoro-1-phenylethyl)piperazine-1-carbonyl)phenyl)quinoline-8-sulfonamide]	< 100

— patent publication US8889667B2 (Agios Pharmaceuticals, Inc, priority 2010, dated 2014)
